Measured values reported in US6953786B2, “Compositions comprising plant-derived polyphenolic compounds and inhibitors of reactive oxygen species and methods of using thereof” (The Regents of the University of California, priority 2002, dated 2005).

Columns and labels:
[1] = system: NF-κB; test: NF-κB DNA binding activity (EMSA / gel shift); assay type: cell-based, human; conditions: for NF-κB activation (DNA binding): Mia PACA-2, 24 hours, no serum, polyphenols 100 μM, MG-132 20 μM; for NF-κB activation caused by serum: Mia PACA-2, 72 hours, with serum, DPI 15 μM, trans-resveratrol 100 μM, genistein 100 μM, LY294002 50 μM
Experimental: In order to determine the role of activated NF-κB in the regulation of apoptosis caused by the polyphenolic compound, the following assay was conducted. BSp73AS cells were cultured for 6 hours and Mia PACA-2 cells were cultured in the absence of serum or growth factors for 24 hours in the absence (controls) or presence of rutin, quercetin, trans-resveratrol, or genistein, each at 100 μM and 20 μM proteosome inhibitor MG-132. Nuclear proteins were isolated and analyzed for NF-κB DNA binding activity with electrophoretic mobility shift assay (EMSA).
Specifically, aliquots of nuclear extracts with equal amount of protein, about 2 to about 10 μg, were mixed in 20 μl reactions with a buffer comprising 10 mM HEPES (pH 7.6), 50 mM KCl, 0.1 mM EDTA, 1 mM DTT, 10% (vol/vol) glycerol and 3 μg poly[d (I-C)]. After aliquots were equilibrated on ice for 5 minutes, binding reactions were stared by addition of 20-60,000 counts/min (20 fM) of ^32P-labeled DNA probes and allowed to proceed for 25-30 minutes at room temperature or up to 1 hour on ice. The oligonucleotide probe
containing the κB binding motif (underlined) was annealed to the complementary oligonucleotide with a 5′-G overhang and end-labeled using Klenow DNA polymerase I. The samples were electrophoresed at room temperature in 0.5×TBE buffer (1×TBE 89 mM Tris base, 89 mM boric acid and 2 mM EDTA) on nondenaturing 4.5% polyacrylamide gel at 200 V. Gels were dried and directly analyzed in the PhosphorImager (Molecular Dynamics, Sunnyvale, Calif.). The experiment was repeated twice.
To study the effects of combinations of DPI and polyphenolic compounds on serum-induced activation of NF-κB and protection from apoptosis, the following assay was conducted. Mia PACA-2 cells were cultured for 72 hours in the presence of serum with or without 100 μM trans-resveratrol, 15 μM DPI, a combination of trans-resveratrol, 100 μM genistein, or a combination of genistein and DPI. NF-κB binding activity was measured in nuclear extracts by gel shift assay as described above.
To determine the effects of LY29400 and DPI on NF-κB activation, Mia PACA-2 cells were cultured for 72 hours in the presence of serum and 15 μM DPI with or without 50 μM LY294002. NF-κB DNA binding activity was measured in nuclear extracts by gel shift assay as described above.

[2] = system: BSp73AS cells; test: Mitochondrial membrane potential, DiOC6(3) retention; assay type: cell-based, rat; conditions: 6 hours (FIG. 10A)
Experimental: (§1) In order to determine the effects polyphenolic compounds have on mitochondrial membrane potential, the retention of the dye 3,3′-dihexyloxacarbocyanine (DiOC6(3)) was measured as described by Pastorino J G, et al. (1998) J Biol Chem 273:7770-7775, which is herein incorporated by reference. BSp73AS cells were cultured for 6 hours in the absence (control) or presence of 0, 12, 24, 50, and 100 μM quercetin and trans-resveratrol. The cells were loaded with 1 μM DiOC6(3) during the last 30 minutes of treatment with a polyphenolic compound (or vehicle). The cells were then collected and pelleted by centrifugation. The supernatant was removed and the pellet was washed twice with PBS by alternate centrifugation and resuspension. The pellet was then lysed by addition of 1 ml of H2O and homogenized. The concentration of DiOC6(3) was read on a Perkin-Elmer LS-5 fluorescence spectrometer at 488 nm excitation and 500 nm emission. An aliquot of the cells was used for determining the DiOC6(3) fluorescence that was retained by the cells.

[3] = system: Mia PACA-2 cells; test: as above; assay type: cell-based, human
Experimental: as §1
Mia PACA-2 cells were cultured for 72 hours in the presence of serum and trans-resveratrol or genistein in the presence or absence of DPI or Tiron. Mitochondrial membrane potential was measured as described above.

[4] = system: cytochrome c; test: Mitochondrial cytochrome c release (Western blot); assay type: cell-based, rat; conditions: BSp73AS, 6 hours, 100 μM
Experimental: In order to determine the effects polyphenolic compounds have on mitochondrial cytochrome c release and apoptosis, the following assay was conducted. BSp73AS cells were cultured for 6 hours and Mia PACA-2 cells were cultured in the absence of serum or growth factors for 24 hours in the absence or presence of 100 μM of each rutin, trans-resveratrol, genistein, or quercetin. Cells were washed twice with ice-cold PBS, pH 7.2 and resuspended in extraction buffer, about 500 μl, comprising 20 mM HEPES-KOH (pH 7.0), 10 mM KCl, 1 mM […], 2 mM MgCl2, 1 mM EDTA, 1 mM DTT, 250 mM sucrose, 1 mM PMSF and protease inhibitors cocktail as provided above. The lysate was incubated for 30 minutes on ice and then homogenized using a glass dounce (80 strokes). Nuclei were removed by centrifugation at 1,000 g for 10 minutes at 4° C. Supernatant was additionally centrifuged for 1 hour at 100,000 g and the resulting supernatant (cytosolic fraction) and pellet (mitochondrial fraction) were collected separately, subjected to SDS-PAGE, and Western blotting using an antibody against cytochrome c. The experiment was repeated twice with similar results.

[5] = Mia PACA-2, no serum (FIG. 10B)
[6] = Mia PACA-2, 72 hours, in the presence of serum (FIG. 11)

| SMILES | NF-κB activation (DNA binding) [1] | mitochondrial membrane potential [2] | mitochondrial membrane potential [3, 5] | cytosolic and mitochondrial cytochrome c [4] | NF-κB activation caused by serum [1] | mitochondrial membrane potential [3, 6] |
| --- | --- | --- | --- | --- | --- | --- |
| O=c1c(O)c(-c2ccc(O)c(O)c2)oc2cc(O)cc(O)c12 [quercetin] | inhibit NF-κB activation | caused dissipation of the mitochondrial membrane potential | caused dissipation of the mitochondrial membrane potential | caused increases in cytosolic cytochrome c and decreases in mitochondrial cytochrome c |  |  |
| Oc1ccc(/C=C/c2cc(O)cc(O)c2)cc1 [trans-resveratrol] | inhibit NF-κB activation | caused dissipation of the mitochondrial membrane potential | caused dissipation of the mitochondrial membrane potential | caused increases in cytosolic cytochrome c and decreases in mitochondrial cytochrome c | not inhibited | no effects on mitochondrial membrane potential |
| O=c1c(-c2ccc(O)cc2)coc2cc(O)cc(O)c12 [genistein] | has no effect on NF-κB | caused dissipation of the mitochondrial membrane potential | caused dissipation of the mitochondrial membrane potential | caused increases in cytosolic cytochrome c and decreases in mitochondrial cytochrome c | not inhibited | no effects on mitochondrial membrane potential |
